Assay results as given in PMC10702053, “Design, synthesis, and characterization of novel system xC^− transport inhibitors: inhibition of microglial glutamate release and neurotoxicity” (Journal of Neuroinflammation, 2023).
Entries after “also recorded” stand apart in the source; their conditions may differ. Like-named read-outs stand apart in the source and are kept apart here.

Experiments:
[1] = target: T1, SxC^− transporter (system xC^− cystine-glutamate antiporter) (Rattus norvegicus, UniProt A0A8I6AB70); experiment: Microglial glutamate release assay (LPS-activated primary microglia); type: cell-based
T1 construct: endogenous in cells
T1 sequence (A0A8I6AB70 1-502): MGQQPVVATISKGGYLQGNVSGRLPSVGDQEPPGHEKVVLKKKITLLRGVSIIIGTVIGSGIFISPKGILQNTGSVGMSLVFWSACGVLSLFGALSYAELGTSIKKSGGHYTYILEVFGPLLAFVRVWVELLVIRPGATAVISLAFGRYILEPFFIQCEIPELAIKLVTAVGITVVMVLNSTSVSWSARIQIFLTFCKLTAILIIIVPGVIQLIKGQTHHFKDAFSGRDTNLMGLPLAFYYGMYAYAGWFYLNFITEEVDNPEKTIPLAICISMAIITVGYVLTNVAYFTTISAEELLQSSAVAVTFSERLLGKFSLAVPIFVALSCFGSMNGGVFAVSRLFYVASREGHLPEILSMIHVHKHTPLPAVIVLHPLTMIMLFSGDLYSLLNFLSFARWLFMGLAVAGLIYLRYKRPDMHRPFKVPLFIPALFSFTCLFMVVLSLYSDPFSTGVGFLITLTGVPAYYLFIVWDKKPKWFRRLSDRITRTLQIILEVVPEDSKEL
T1 sequence (Q794F9 whole entry partner): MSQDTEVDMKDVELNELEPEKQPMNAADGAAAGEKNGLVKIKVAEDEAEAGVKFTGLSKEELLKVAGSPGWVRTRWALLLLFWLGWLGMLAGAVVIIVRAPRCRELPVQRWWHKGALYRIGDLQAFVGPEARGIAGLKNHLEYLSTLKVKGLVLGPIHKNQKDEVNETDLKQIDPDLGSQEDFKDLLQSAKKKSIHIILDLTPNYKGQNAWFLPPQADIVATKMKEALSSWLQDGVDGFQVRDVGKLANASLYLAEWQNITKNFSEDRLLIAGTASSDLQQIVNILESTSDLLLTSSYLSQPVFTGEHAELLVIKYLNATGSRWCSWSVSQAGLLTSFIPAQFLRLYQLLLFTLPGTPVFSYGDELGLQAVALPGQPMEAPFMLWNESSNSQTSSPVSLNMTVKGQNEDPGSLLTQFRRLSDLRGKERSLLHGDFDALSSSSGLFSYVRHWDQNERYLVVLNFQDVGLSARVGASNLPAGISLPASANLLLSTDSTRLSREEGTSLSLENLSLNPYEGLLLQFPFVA
Procedure: Primary cultures of rat microglia were established as described previously. Microglia were seeded at 375,000/cm^2 in 96-well plates with minimal essential medium with Earle’s salts (MEM) containing 10% fetal bovine serum (FBS). After an overnight plating, the cultures were washed twice with serum-free MEM, and then a third volume was applied containing test substances at the indicated concentrations; MEM contains 100 μM (Cys)2. Immediately thereafter, lipopolysaccharide (LPS) was added to some wells at 100 ng/ml. This concentration was selected for this particular lot of LPS as the concentration producing a slightly submaximal response (i.e., 2–5% below the maximum). After 18 h, 50 μl of medium was transferred from each well to a black, opaque-bottomed 96-well plate and combined with 50 μl of assay reagent from a Amplex® Red Glutamic Acid Assay kit (ThermoFisher). A standard curve was generated with a range of concentrations of L-glutamate (monosodium salt). The assay reagent contained 0.25 U/ml horseradish peroxidase, 0.08 U/ml L-glutamate oxidase, 0.5 U/ml L-glutamate/pyruvate transaminase, and 200 μM L-alanine. After 30 min, fluorescence was measured in a Molecular Devices SpectraMax 3 with excitation at 550 nm and emission at 590 nm; values were interpolated into the standard curve. The microglial medium was also assayed for nitric oxide using Griess reagent to confirm that none of the experimental compounds was a general inhibitor of microglial activation. We also considered whether any compound was toxic to microglia. The microglia remaining in the 96-well plates were combined with 3-(4,5-dimethylthiazol-2-yl)-2,5-diphenyl-2H-tetrazolium bromide (MTT) at a final concentration of 125 μg/ml (in MEM/FBS) and incubated for 30 min at 37 °C and 5.5% CO2. After removal of the medium, 100 μl of dimethyl sulfoxide (DMSO) was added to dissolve the formazan crystals, and absorbance at 540 nm was measured in the SpectraMax 3; the mean background obtained in wells containing DMSO alone was subtracted from each experimental value.
Data were analyzed in GraphPad Prism 9.5.1. Nonlinear regression was performed on the glutamate release assay data to derive IC50 values and the graphed plot lines. ANOVA indicated post hoc tests were applied to dosimetric data; P < 0.05 was considered significant.
Fig. 2 Microglial Glu release assay. Rat primary microglia were activated with 100 ng/ml LPS alone or immediately following application of the indicated concentrations of test substances. After 18 h in the presence of LPS, an aliquot of medium was assayed for Glu via a […]. A First generation of compounds was created by simply varying the position of a methyl group around an aromatic ring, comparing activity to 3,5-DBT. B Additional modifications were evaluated, including several that simply extend the size of the structure hypothesized to fit into the hydrophobic pocket of the SxC^− transporter. Values are represented relative to the Glu detected in cultures treated with LPS alone; each data point represents a mean of 4 cultures. Nonlinear regression was performed to provide the plot lines

[2] = Solubility in aqueous media (observation); type: physicochemical
[3] = Light sensitivity (observation); type: physicochemical
primary cortical neurons = experiment: Neurotoxicity assay: microglia transwell / cortical neuron coculture, MTT; type: cell-based, rat; conditions: microglia treated with compound + LPS 100 ng/ml, 1 h, then 18 h with cortical neurons
Procedure: Primary cultures of rat cortical neurons were established as described previously; incorporation of both a serum-free medium and an intermittent treatment with cytosine arabinoside results in cultures that are among the purest neuronal primary cultures available. The cultures were seeded in 24-well plates, and 8 days later primary microglia were plated in transwell inserts (12-mm diameter) at 375,000/cm^2, washed to serum-free MEM, and treated with test substances followed immediately by LPS (100 ng/ml). After 1 h, the inserts were placed into the wells of the neuronal cultures. After an additional 18 h, the inserts were removed, and neuronal survival was evaluated by MTT assay as described above. Values are represented relative to the MTT signal produced in cultures exposed to untreated microglia.
Fig. 6 35DPTA7 and 35DPTSA12 reduced the neurotoxicity of activated microglia. Primary microglia were plated on permeable membranes in basket-type cell-culture inserts. Some cultures were treated with the indicated concentrations of 35DBTA7 or 35DBTSA12, followed immediately by application of LPS (100 ng/ml); some cultures were untreated and some received LPS alone. After 1 h, the inserts were placed into wells containing primary cortical neurons. After an additional 18 h, neuronal survival was determined by MTT assay. […]

[4] = target: T1, SxC^− transporter (system xC^− cystine-glutamate antiporter); experiment: Cystine uptake assay (selenocystine) in LPS-activated primary microglia; type: cell-based; conditions: LPS 100 ng/ml 15 h, selenocystine uptake 30 min, 0.03-300 μM
Procedure: Cystine uptake was measured essentially as per Shimomura et al. using the Cystine Uptake Assay Kit (DOJINDO). Primary microglia were seeded as per glutamate release assays, and some cultures were treated the following day with 100 ng/ml LPS. After 15 h, the cultures were washed twice with Hank’s balanced salt solution (HBSS) and then incubated 5 min at 37 °C in HBSS containing fresh LPS and test substances at the indicated concentrations. The cultures were then exposed to HBSS containing selenocystine (DOJINDO) for 30 min at 37 °C, after which they were washed three times with ice-cold phosphate-buffered saline and then fixed in 50 μl methanol. A detection buffer comprising fluorescein O,O’-diacrylate and reducing agent (DOJINDO) was then added, and the plate was sealed and incubated for 30 min at 37 °C. Reaction product was then assayed in the Molecular Devices SpectraMax 3 with excitation at 490 nm and emission at 535 nm. Blanks consisted of wells containing only cells that had been washed, fixed with methanol, and incubated with the detection buffer, and the values from these wells were subtracted from the experimental values.
Fig. 5 35DPTA7 and 35DPTSA12 inhibit cystine uptake in microglia. Rat primary microglia were activated with 100 ng/ml LPS alone for 15 h, then the indicated concentrations of test substances were applied during application of selenocystine. […]

[5] = rat primary microglia, LPS 100 ng/ml, 18 h
[6] = rat primary microglia, LPS 100 ng/ml, 18 h, nonlinear regression in GraphPad Prism, read-out: IC50 ± SEM, inhibition of microglial Glu release

| Structure (SMILES) | Inhibition of SxC^− / microglial Glu release (in words) [1, 5] | IC50 [1, 6] | further results |
| --- | --- | --- | --- |
| N[C@@H](Cc1nc(I)[nH]c1I)C(=O)O [2,5-DIH, 2,5-diiodohistidine] | completely inactive |  |  |
| N[C@@H](Cc1cc(Br)c(O)c(Br)c1)C(=O)O [3,5-DBT, 3,5-dibromotyrosine] | potent inhibition |  | Solubility in water / aqueous solutions (in words) [2]: high solubility in water as a salt; IC50 [1]: 3.49 ± 0.779 µM |
| N[C@@H](Cc1cc(I)c(O)c(I)c1)C(=O)O [3,5-DIT] |  | 0.665 ± 0.127 µM | Light sensitivity [3]: exceedingly light sensitive |
| O=C(O)[C@H](Cc1cc(Br)c(O)c(Br)c1)NC(=O)C(F)(F)F [35DBTA6] | trend toward inhibitory properties at low concentrations but produced a reversal of that trend above 3 μM |  |  |
| O=C(N[C@@H](Cc1cc(Br)c(O)c(Br)c1)C(=O)O)c1ccc(-c2ccc(-c3ccccc3)cc2)cc1 [35DBTA8] | quite effective | 0.172 ± 0.0056 µM | Solubility in water / aqueous solutions (in words) [2]: poorly soluble; Solubility of the disodium salt (carboxylate and phenoxide) in aqueous media ([2]; disodium salt): poorly soluble |
| N[C@@H](Cc1ccc(O)cc1)C(=O)O [Tyr, L-tyrosine, reference compound] | does not possess any inhibitory properties |  |  |

More lines, main results first:

| Inhibition of SxC^− / microglial Glu release (in words) [1, 5] | IC50 [1, 6] | Structure (SMILES) | further results |
| --- | --- | --- | --- |
|  | 1.03 ± 0.44 µM | Cc1ccccc1C(=O)N[C@@H](Cc1cc(Br)c(O)c(Br)c1)C(=O)O [35DBTA1] |  |
|  | 5.79 ± 3.96 µM | Cc1cccc(C(=O)N[C@@H](Cc2cc(Br)c(O)c(Br)c2)C(=O)O)c1 [35DBTA2] |  |
| greatest potency | 0.159 ± 0.0244 µM | Cc1ccc(C(=O)N[C@@H](Cc2cc(Br)c(O)c(Br)c2)C(=O)O)cc1 [35DBTA3] |  |
|  | 25.5 ± 4.59 µM | CCC(=O)N[C@@H](Cc1cc(Br)c(O)c(Br)c1)C(=O)O [35DBTA5] |  |
| quite effective | 1.61 ± 0.377 µM | O=C(N[C@@H](Cc1cc(Br)c(O)c(Br)c1)C(=O)O)c1ccc(-c2ccccc2)cc1 [35DBTA7] | Neuronal survival (MTT) in presence of LPS-activated microglia (in words) (primary cortical neurons): elevated the survival signal; also recorded: quite effective; Inhibition of cystine uptake into microglia (in words) [4]: dose-dependent inhibition |
